From patent publication US11179348B2, “Combination comprising pterostilbene for the treatment of cancer” (FUNDACIÓN UNIVERSIDAD CATÓLICA DE VALENCIA SAN VICENTE …, priority 2015, dated 2021)
Marks after values point to notes of the source that are not given here.

What was measured:
B16-F1 melanoma = assay: In vivo growth of murine B16-F1 melanoma; conditions: B16-F1-RFP; 15 days after inoculation; Pter 30 mg/kg i.v. every 24 h, ± CRC
Protocol: FIG. 14. In vivo effect of Pter on tumor growth (A) and on corticosterone (B) and ACTH (C) levels in plasma of murine B16-F1 melanoma-bearing mice. Pter (30 mg/kg) was administered i.v. every 24 h for a period of 15 days, starting 3 days after tumor inoculation.

corticosterone = assay: Plasma corticosterone levels (ELISA) in tumor-bearing mice; type: in vivo
Source text: Measurement of ACTH, Corticosterone, and NORA Levels.
Plasma levels of ACTH (Calbiotech, Inc., Spring Valley, Calif.), corticosterone (Kamiyama Biomedical Co., Seattle, Wash.), and NORA (IBL, Hamburg, Germany) were quantified by ELISA according to the instructions of the suppliers.

[1] = tested on: glucocorticoid receptors (GR); assay: GR content of human cancer cells by [3H]-labeled ligand whole-cell binding assay
[2] = Hematology, clinical chemistry and urinary balance in tumor-bearing mice treated with Pter; type: in vivo; conditions: A2058-bearing mice, Pter 30 mg/kg i.v., day 35

Compound: COc1cc(/C=C/c2ccc(O)cc2)cc(OC)c1 [Pter, trans-3,5-dimethoxy-4′-hydroxystilbene]
- Tumor vol. (B16-F1 melanoma): 790 ± 156* mm^3
- CRC (corticosterone; A549-bearing mice, day 35, 12 h circadian time): 61 ± 17 ng/mL plasma
- CRC (corticosterone; A2058-bearing mice, day 35, 12 h circadian time): 123 ± 29 ng/mL plasma
- CRC (corticosterone; AsPC-1-bearing mice, day 28, 12 h circadian time): 217 ± 33 ng/mL plasma
- CRC (corticosterone; B16-F1-bearing mice, day 15, 12 h circadian time): 187 ± 36 ng/mL plasma
- CRC (corticosterone; BxPC-3-bearing mice, day 35, 12 h circadian time): 88 ± 21 ng/mL plasma
- CRC (corticosterone; Caco-2-bearing mice, day 28, 12 h circadian time): 106 ± 23 ng/mL plasma
- CRC (corticosterone; HT-29-bearing mice, day 21, 12 h circadian time): 126 ± 36 ng/mL plasma
- CRC (corticosterone; HepG2-bearing mice, day 35, 12 h circadian time): 187 ± 50 ng/mL plasma
- CRC (corticosterone; LNCaP-bearing mice, day 49, 12 h circadian time): 77 ± 15 ng/mL plasma
- CRC (corticosterone; MCF-7-bearing mice, day 28, 12 h circadian time): 75 ± 20 ng/mL plasma
- CRC (corticosterone; MDA-MB-231-bearing mice, day 35, 12 h circadian time): 84 ± 24 ng/mL plasma
- CRC (corticosterone; MeWo-bearing mice, day 35, 12 h circadian time): 87 ± 17 ng/mL plasma
- CRC (corticosterone; MelJuso-bearing mice, day 35, 12 h circadian time): 80 ± 15 ng/mL plasma
- CRC (corticosterone; PC-3-bearing mice, day 21, 12 h circadian time): 145 ± 30 ng/mL plasma
- CRC (corticosterone; SK-OV-3-bearing mice, day 49, 12 h circadian time): 64 ± 18 ng/mL plasma
- corticosterone in plasma (corticosterone; melanoma-bearing mice, pterostilbene 30 mg/kg every 48 h (FIG. 2A)): to practically control values
- GR number ([1]; A549, day 35): 41 ± 10 10^3 GR/cell
- GR number (binding sites/cell) ([1]; A2058-RFP tumors, day 35): 71 ± 5 10^3 GR/cell
- GR number (binding sites/cell) ([1]; AsPC-1-RFP tumors, day 28): 63 ± 10 10^3 GR/cell
- GR number (binding sites/cell) ([1]; BxPC-3-RFP tumors, day 35): 115 ± 27 10^3 GR/cell
- GR number ([1]; Caco-2, day 28): 7 ± 2 10^3 GR/cell
- GR number ([1]; HT-29, day 21): 14 ± 3 10^3 GR/cell
- GR number ([1]; HepG2, day 35): 45 ± 11 10^3 GR/cell
- GR number ([1]; LNCaP, day 49): 3 ± 1 10^3 GR/cell
- GR number ([1]; MCF-7, day 28): <1 10^3 GR/cell
- GR number ([1]; MDA-MB-231, day 35): 18 ± 3 10^3 GR/cell
- GR number (binding sites/cell) ([1]; MeWo-RFP tumors, day 35): 45 ± 6 10^3 GR/cell
- GR number (binding sites/cell) ([1]; MelJuso-RFP tumors, day 35): 47 ± 4 10^3 GR/cell
- GR number ([1]; PC-3, day 21): 21 ± 6 10^3 GR/cell
- GR number ([1]; SK-OV-3, day 49): 25 ± 7 10^3 GR/cell
- % CD3 [2]: 1.2 ± 0.2%
- Alanine aminotransferase [2]: 7.0 ± 1.6 IU/L
- Albumin [2]: 2.9 ± 0.6 g/dL
- Alkaline phosphatase [2]: 140 ± 21 IU/L
- Aspartate aminotransferase [2]: 140 ± 27 IU/L
- B cells [2]: 63.4 ± 7.7
- Basophils [2]: 0.0 ± 0.0 10^3/μL
- CD4 [2]: 0.9 ± 0.1
- CD8 [2]: 0.4 ± 0.05
- Chloride [2]: 99 ± 10 mEq/L
- Creatinine [2]: 0.5 ± 0.1 mg/dL
- Direct bilirubin [2]: 0.1 ± 0.03 mg/dL
- Eosinophils [2]: 0.05 ± 0.02 10^3/μL
- Erythrocytes [2]: 7.0 ± 0.2^† 10^6/μL
- GGT [2]: 2.0 ± 0.5 IU/L
- Glucose [2]: 157 ± 19 mg/dL
- Hematocrit [2]: 34.4 ± 3.0%
- Hemoglobin [2]: 12.1 ± 0.4 g/dL
- Isolated CD2^+ lymphocytes: Cell volume [2]: 164 ± 15 μm^3
- Isolated CD2^+ lymphocytes: GSH [2]: 4.3 ± 0.5 nmol/10^6 cells
- Isolated CD2^+ lymphocytes: Glucose utilization [2]: 1.24 ± 0.08 µmol/g/min
- Isolated CD2^+ lymphocytes: Glutamine utilization [2]: 3.35 ± 0.32 µmol/g/min
- Isolated hepatocytes: Cell volume [2]: 2.9 ± 0.2 μL/mg dry wt.
- Isolated hepatocytes: GSH [2]: 4760 ± 377 nmol/g of cells
- Isolated hepatocytes: Glucose utilization [2]: 1.57 ± 0.12 µmol/g/min
- Lactate dehydrogenase [2]: 251 ± 38 IU/L
- Leukocytes [2]: 2.2 ± 0.4 10^3/μL
- Lymphocytes [2]: 1.3 ± 0.2 10^3/μL
- Monocytes [2]: 0.04 ± 0.02* 10^3/μL
- NK [2]: 4.1 ± 1.5
- Neutrophils [2]: 0.8 ± 0.2 10^3/μL
- Plasma osmolality [2]: 278 ± 15 mOsm/kg
- Platelets [2]: 393 ± 36 10^3/μL
